Data: patent publication US20190062697A1, “Cell Differentiation Marker and its Uses” (Centre National De La Recherche Scientifique (CNRS), priority 2013, published 2019)

Assays:
ES cells [1] = test: BrdU pulse-labelling / FACS of synchronized ES cells UV-irradiated in G1 (S-phase entry); assay type: cell-based, mouse; settings: 24 hours knockdown, UV light in G1, collected 2 hours after UV
Protocol: FIG. 4F is a histogram showing Cdc25A downregulation in G1 delay upon DNA damage. Control (a.) and Cdc25A (b.) RNAi-transfected cells were released from nocodazole and exposed to UV light in G1 (t=2) and collected 2 hours (t=4) after UV-(+) or mock-irradiation (−). Prior to collection cells were pulse-labelled with BrdU. Fraction (expressed as %) of diploid BrdU negative cells is plotted (data are represented as mean±SD). Statistical differences is indicated with a single asterisk (*) for P<0.05. Y-axis represents the percentage of cells in G1.
ES cells were arrested in prometaphase by nocodazole (Sigma) for 4-8 hours. After mitotic-shake off cells were washed 3 times in ice-cold PBS and dissolved in full ES growth medium. Cells were incubated in a humidified atmosphere of 5% CO2 at 37° C. for 45 minutes and placed at 30° C. for 1 hour to reduce S phase entry. Cells were mock- or UV-irradiated (6 J/m2) and incubated at 37° C. prior collection. To synchronise NIH-3t3 cells in G0 cells were grown to confluence and incubated for 2-3 days. Next, cells were washed, resuspended and split at 30% confluency. […]
Single-cell suspensions were prepared by trypsinisation and washed once in PBS. […] The BrdU content was determined by reaction with a fluorescein isothiocyanate (FITC)-conjugated anti-BrdU antibody (BD Biosciences). Cells were analyzed with a FACScalibur flow cytometer using CellQuestPro software.

CDK2^Y15P = test: Western blot of inhibitory CDK2 Tyr15 phosphorylation upon DNA damage in G1; assay type: cell-based, mouse; settings: 24 hours knockdown, UV light in G1
Description: FIG. 4E is a western blot showing the downregulation of Cdc25A expression by RNAi resulting in increased inhibitory CDK2Tyr15 phosphorylation upon DNA damage in G1. Control (a.) and Cdc25A (b.) RNAi-transfected cells were released from nocodazole and exposed (+) to UV-light in G1. Samples were collected at the indicated times and analyzed by western blotting with the indicated antibodies: Cdc25A (#1), Cdk2^Y15P (#2), Cyclin B1 (#3), Chk1^S345P (#4), Chk1 (#5) and β-actin (#6; as control).
Western blot signals of FIG. 4E were quantified by densitometry scanning and expressed as relative optical density (ROD) compared to Chk1 signal as loading control. Black bars represent cells treated with Cdc25A RNAi (a.) and white bars represent cells treated with control RNAi (b.).
Cells were rinsed once in PBS and then incubated with ice cold lysis buffer (50 mM Tris-HCl pH 7.4, 100 mM NaCl, 50 mM NaF, 5 mM EDTA, 40 mM β-glycero-phosphate, 1% Triton X-100 and protease inhibitors) for 30 min on ice before scraping. Whole cell extracts were clarified by centrifugation at 12000 rcf for 10 min at 4° C. Protein concentration of the clarified lysates was estimated using BCA method (Pierce). Equal amount of protein was used for western blot analysis. All antibodies were incubated overnight at 4° C. in phosphate-buffered saline (PBS) containing 1% BSA and 0.1% Tween (Sigma). […]

ES cells [2] = test: Clonogenic assay of ES cells with alkaline phosphatase (AP) staining; assay type: cell-based, mouse; settings: prolonged (7 days) RNAi knockdown, in the presence of LIF
Protocol: FIG. 12M is a histogram showing a clonogenic assay of ES cells upon prolonged control (1), Dub3 (2) or Cdc25a (3) targeting RNAi sequence. Cells were plated at clonal density in LIF-containing serum and stained for AP after 7 days. Columns show the percentage of alkaline phosphatase (AP) positive (dark grey) or negative (light grey) colonies. At least 150 colonies were scored.

Cdc25A = test: Western blot analysis of Cdc25A protein levels in ES cells; assay type: cell-based, mouse
Protocol: Cells were UV-irradiated and incubated with cycloheximide (Cx) in absence or presence of Chk1 inhibitor SB218078, collected at the indicated times (min) and analyzed by western blotting. Cdc25A expression (#1) and β-actin (#2; as control) are shown.
FIG. 6J is a western blot analysis of Cdc25A protein expression in Luciferase (a.), β-TrCP (b.) and Cdh1 (c.) RNAi-transfected cells. Expression of Cdc25A (#1) and β-actin (#2) is shown.
Expression of CDC25A (#1), Cdc25C (#2) and β-actin (#3, as control) is represented.
FIG. 9B is a western blot analysis of Cdc25A protein levels in ES cells treated with increasing concentrations (in μM) of the DY131 agonist for 16 hours. Cdc25A (#1) and β-actin (#2, as control) protein expression is represented.
Cells were rinsed once in PBS and then incubated with ice cold lysis buffer (50 mM Tris-HCl pH 7.4, 100 mM NaCl, 50 mM NaF, 5 mM EDTA, 40 mM β-glycero-phosphate, 1% Triton X-100 and protease inhibitors) for 30 min on ice before scraping. Whole cell extracts were clarified by centrifugation at 12000 rcf for 10 min at 4° C. Protein concentration of the clarified lysates was estimated using BCA method (Pierce). Equal amount of protein was used for western blot analysis. All antibodies were incubated overnight at 4° C. in phosphate-buffered saline (PBS) containing 1% BSA and 0.1% Tween (Sigma). Antibodies used from Cell Signaling: Chk1S345P (2341), p53S15P (9284), γH2AX (2577), CDK2Y15P (9111), Myc-Tag (2276); Active caspase 3 (9961); Abcam: DNA polα (ab31777), H3 (ab1791), CDK2 (ab6538), PSTAIR (ab10345), GFP (ab290), MCM2 (ab4461); Suds3 (ab3740) Santa Cruz: Cdc45 (sc-20685), Cdc25A (sc-7389), Chk1 (sc-8408), Cyclin B1 (sc-245), Cdc25C (sc-327), Cdc25B (sc-65504), p21 (sc-6246), RhoA (sc-418); anti-goat IgG-HRP (sc-2020) Sigma: (PC10), β-actin (A1978), Cyclin A (C7410), Anti-Flag M2 (F1804), Oct4 (Chemicon, AB3209), and Millipore, Nestin (Ab353), H3S10P (Millipore 09-797). Wee1 (kindly provided by T. Lorca, CRBM Montpellier).

Cdc25A mRNA = test: qPCR quantification of Cdc25A mRNA in ES cells; assay type: cell-based, mouse
Protocol: FIG. 6I is a histogram showing qPCR quantification of Cdc25A normalised to multiple reference genes expressed as percentage of control. ES cells were transfected with control (Luc), β-TrCP (1), Cdh1 (2) or Dub3 (3) RNAi sequences and collected 48 hours after transfection. Bars represent the mean±SD of triplicate observations.
FIG. 7C is a histogram showing the qPCR quantification of Cdc25A mRNA normalised to multiple reference genes. ES cells were transfected with control (1), Dub3 (2) or Cdc25A (3) RNAi sequences.
(§1) FIG. 9A is a graph showing qPCR quantification of Cdc25A (curves with black squares) and Dub3 (curves with triangles) mRNA in ES cells treated with increasing concentration of the selective Esrrb and Esrrg agonist DY131 (indicated doses in μM) for 16 hours. Bars represent the fold induction±SD of triplicate observations.
(§2) Briefly, ES cells were maintained in Glasgow MEM BHK-21 (GMEM) supplemented with 10% fetal bovine serum, non-essential amino acids, L-glutamine, sodium pyruvate, β-mercapthethanol. NIH-3t3 cells were maintained in Dulbecco's modified eagle's medium (DMEM) supplemented with 10% fetal bovine serum, 2 mM glutamine and antibiotics. […]
(§3) Total RNA was isolated with TRIzol reagent (Invitrogen). […] Quantitative PCRs were performed using Lightcycler SYBR Green I Master mix (Roche) on Lightcycler apparatus (Roche). […]

Dub3 mRNA = test: qPCR quantification of Dub3 mRNA in ES cells; assay type: cell-based, mouse; settings: increasing dose of DY131, 16 hours
Protocol: as §1
FIG. 9C is a histogram showing qPCR quantification of Esrrb (1) and Dub3 (2) mRNA normalised to multiple reference genes expressed as percentage of control in presence of DY131. ES cells were transfected with control (Crtl) RNAi (white bars) or Esrrb specific RNAi sequence (black bars). Data are expressed as mean±SD (error bars) of multiple observations.
as §2, with “antibiotics. The viruses-containing conditioned medium was incubated on exponentially growing NIH-3t3 cells for 24 hours in the presence of polybrene ([…]).” for “antibiotics.”
as §3

[3] = system: deubiquitylating enzymes (DUBs); settings: cited from earlier work
ES cells [4] = test: FACS cell cycle analysis of asynchronously growing ES cells treated with roscovitine; assay type: cell-based, mouse; settings: increasing concentration of roscovitine
Protocol: FIG. 5C is FACS analysis of asynchronously growing ES cells treated with increasing concentration of Roscovitine (in μM; Z-axis). Roscovitine is a potent and selective inhibitor of cyclin-dependent kinases, […]. X-axis represents DNA content (expressed in propidium iodide fluorescence) and Y-axis represents the number of cells.
Single-cell suspensions were prepared by trypsinisation and washed once in PBS. Cells were fixed in ice-cold 70% ethanol (−20° C.) and stored at −20° C. overnight. Following RNAse A treatment, total DNA was stained with propidium iodide (25 μg/ml). For BrdU uptake analysis, ES cells and NIH-3t3 cells were grown in the presence of 10 μM BrdU for respectively 10 and 30 minutes. The BrdU content was determined by reaction with a fluorescein isothiocyanate (FITC)-conjugated anti-BrdU antibody (BD Biosciences). Cells were analyzed with a FACScalibur flow cytometer using CellQuestPro software.

[5] = RNAi-mediated knockdown in ES cells
[6] = increasing dose of DY131, 16 hours, ES cells

5′-GAAAUUUCCCUGACGAGAA-3′ (listed as RNA, chemistry not given here) [Cdc25A RNAi]
BrdU-negative cells with 2N DNA content (ES cells [1]): significant, UV-dependent, increase of BrdU-negative cells with 2N DNA content
CDK2^Y15P levels (CDK2^Y15P): increased CDK2^Y15P levels
alkaline phosphatase (AP)-negative colonies (ES cells [2]): A very similar result was also observed

5′-GGCUGUAAGAUGUGUGCUA-3′ (listed as RNA, chemistry not given here) [Dub3 RNAi]
reduction of Cdc25A protein abundance (Cdc25A; [5]): 3 fold
alkaline phosphatase (AP)-negative colonies (ES cells [2]): increase of alkaline phosphatase (AP)-negative colonies
Cdc25A mRNA level (Cdc25A mRNA; [5]): did not affect Cdc25A mRNA level

CCN(CC)c1ccc(/C=N/NC(=O)c2ccc(O)cc2)cc1 [DY131]
Cdc25A protein abundance (Cdc25A; [6]): increased Cdc25A protein abundance
Dub3 gene expression (Dub3 mRNA): boosted Dub3 gene expression
Cdc25A transcript level (Cdc25A mRNA; [6]): without affecting Cdc25A transcript level

N#CSc1cc(SC#N)c(N)nc1N [PR-619]
accumulation of polyubiquitylated proteins in cells [3]: induces the accumulation of polyubiquitylated proteins in cells
proteasome activity [3]: without directly affecting proteasome activity

O=C1NC(=O)c2c1c1c3ccccc3n3c1c1c2c2ccccc2n1C1CCC3O1 [SB218078]
Cdc25A destruction upon DNA damage (Cdc25A; UV-irradiated ES cells with cycloheximide, absence or presence of Chk1 inhibitor): rapid Cdc25A destruction upon DNA damage is Chk1-dependent

CC[C@H](CO)Nc1nc(NCc2ccccc2)c2ncn(C(C)C)c2n1 [roscovitine]
G1 cells (ES cells [4]): dose-dependent increase of G1 cells
fraction of S phase cells (ES cells [4]): reduced the fraction of S phase cells
